Drawing on patent US9771333B2, “Quinazoline derivatives as TAM family kinase inhibitors” (SIGNALCHEM LIFESCIENCES CORP., priority 2013, dated 2017), this text covers IC50 for ten compounds.

Assay type in all cases: biochemical
Assay [1] concerns the target T1, human Tyro3 (Homo sapiens, UniProt Q06418).
T1 construct: GST (N); made in house; host or cells: Sf9 insect cells (baculovirus)
T1 sequence (Q06418 455-890 limits assumed): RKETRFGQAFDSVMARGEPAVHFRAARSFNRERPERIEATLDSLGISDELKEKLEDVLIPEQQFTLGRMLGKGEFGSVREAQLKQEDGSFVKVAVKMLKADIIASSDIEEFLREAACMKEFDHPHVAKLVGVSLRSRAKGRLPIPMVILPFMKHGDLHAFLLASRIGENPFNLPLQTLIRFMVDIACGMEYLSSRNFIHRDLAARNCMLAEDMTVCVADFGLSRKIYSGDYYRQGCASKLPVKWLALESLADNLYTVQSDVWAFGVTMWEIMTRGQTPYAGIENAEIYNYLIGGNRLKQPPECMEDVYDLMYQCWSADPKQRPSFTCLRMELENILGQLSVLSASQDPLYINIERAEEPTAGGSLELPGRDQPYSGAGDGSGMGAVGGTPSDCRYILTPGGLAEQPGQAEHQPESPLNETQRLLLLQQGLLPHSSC
Kind of assay: Kinase enzymatic activity assay (33P-radiolabeled phosphate transfer), Tyro3. Conditions: recombinant human Tyro3 (455-end), poly(4:1 glu:tyr) substrate, 30 minutes. The method, boiled down: (§1)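 GST-tagged human Tyro3 (455-end), Axl (473-end) and Mer (578-872) from Sf9 cells, with poly(Glu:Tyr) 4:1 substrate, in MOPS pH 7.2 buffer with MgCl2. [33P]-ATP added from a 250 µM cocktail; reaction 30 min at room temperature, filter-captured counts, duplicates. IC50 derived from % inhibition over a compound serial dilution.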

The target of assay [2] is T2, human Mer (Homo sapiens, UniProt Q12866).
T2 construct: GST (N); made in house; host or cells: Sf9 insect cells (baculovirus)
T2 sequence (Q12866 578-872): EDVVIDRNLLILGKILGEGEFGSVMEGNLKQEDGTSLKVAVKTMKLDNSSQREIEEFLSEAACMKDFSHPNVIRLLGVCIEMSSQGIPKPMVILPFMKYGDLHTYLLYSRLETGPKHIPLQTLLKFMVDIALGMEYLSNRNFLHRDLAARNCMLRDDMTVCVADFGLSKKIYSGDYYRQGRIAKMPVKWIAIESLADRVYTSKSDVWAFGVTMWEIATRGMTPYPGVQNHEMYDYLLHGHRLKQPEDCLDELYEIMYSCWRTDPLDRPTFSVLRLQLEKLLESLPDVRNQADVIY
Kind of assay: Kinase enzymatic activity assay (33P-radiolabeled phosphate transfer), Mer. Conditions: recombinant human Mer (578-872), poly(4:1 glu:tyr) substrate, 30 minutes. The essentials: as §1

The target in assay [3] is T3, human Axl (Homo sapiens, UniProt P30530).
T3 construct: GST (N); made in house; host or cells: Sf9 insect cells (baculovirus)
T3 sequence (P30530 473-894 limits assumed): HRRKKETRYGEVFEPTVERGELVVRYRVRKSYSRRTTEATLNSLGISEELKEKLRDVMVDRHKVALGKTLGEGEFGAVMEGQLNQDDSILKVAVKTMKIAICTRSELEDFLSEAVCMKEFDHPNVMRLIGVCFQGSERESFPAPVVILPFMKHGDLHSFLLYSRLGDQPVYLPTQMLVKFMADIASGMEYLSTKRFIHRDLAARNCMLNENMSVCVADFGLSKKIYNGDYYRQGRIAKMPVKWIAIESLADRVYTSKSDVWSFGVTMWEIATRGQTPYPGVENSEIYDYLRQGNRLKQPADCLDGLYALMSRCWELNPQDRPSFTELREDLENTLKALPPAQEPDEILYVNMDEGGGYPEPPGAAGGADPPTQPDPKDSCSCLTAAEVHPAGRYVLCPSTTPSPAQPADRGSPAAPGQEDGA
Kind of assay: Kinase enzymatic activity assay (33P-radiolabeled phosphate transfer), Axl. The following applies: recombinant human Axl (473-end), poly(4:1 glu:tyr) substrate, 30 minutes. The method, boiled down:
as §1

Each structure is given as a SMILES string. Some results are limits rather than exact numbers.

Regarding `CN1CCC(CCOc2cc(OC3CCOCC3)c3c(Nc4nc(C(F)(F)F)cs4)ncnc3c2)CC1` [Example 2.45, N-(7-(2-(1-methylpiperidin-4-yl)ethoxy)-5-((tetrahydro-2H-pyran-4-yl)oxy)quinazolin-4-yl)-4-(trifluoromethyl)thiazol-2-amine], the IC50 is over 10000 nM in assay [1], 1000 to 10000 nM in assay [2] and under 500 nM in assay [3].
The corresponding values for `CN1CCC(COc2cc(OC3CCOCC3)c3c(Sc4nncs4)ncnc3c2)CC1` [Example 2.47, 2-((7-((1-methylpiperidin-4-yl)methoxy)-5-((tetrahydro-2H-pyran-4-yl)oxy)quinazolin-4-yl)thio)-1,3,4-thiadiazole] are 1000 to 10000 nM, 1000 to 10000 nM and under 500 nM.
In the same order, the values of `Cc1nnc(Sc2ncnc3cc(OCC4CCN(C)CC4)cc(OC4CCOCC4)c23)s1` [Example 2.48, 2-methyl-5-((7-((1-methylpiperidin-4-yl)methoxy)-5-((tetrahydro-2H-pyran-4-yl)oxy)quinazolin-4-yl)thio)-1,3,4-thiadiazole] are over 10000 nM, over 10000 nM and 500 to 1000 nM.
Turning to `Cc1nc(Sc2ncnc3cc(OCC4CCN(C)CC4)cc(OC4CCOCC4)c23)oc1C` [Example 2.49, 4,5-dimethyl-2-((7-((1-methylpiperidin-4-yl)methoxy)-5-((tetrahydro-2H-pyran-4-yl)oxy)quinazolin-4-yl)thio)oxazole], the IC50 in assay [1] was 1000 to 10000 nM; in assay [2] it was over 10000 nM; in assay [3], over 10000 nM.
Consider `CN1CCC(COc2cc(OC3CCOCC3)c3c(Sc4nc(C(F)(F)F)cs4)ncnc3c2)CC1` [Example 2.50, 2-((7-((1-methylpiperidin-4-yl)methoxy)-5-((tetrahydro-2H-pyran-4-yl)oxy)quinazolin-4-yl)thio)-4-(trifluoromethyl)thiazole], for which the results for the IC50 in assay [1], in assay [2] and in assay [3] were over 10000 nM, 1000 to 10000 nM and 500 to 1000 nM, respectively.
Turning to `Cc1csc(Sc2ncnc3cc(OCC4CCN(C)CC4)cc(OC4CCOCC4)c23)n1` [Example 2.51, 4-methyl-2-((7-((1-methylpiperidin-4-yl)methoxy)-5-((tetrahydro-2H-pyran-4-yl)oxy)quinazolin-4-yl)thio)thiazole], the concentration for half-maximal inhibition (IC50) in assay [1] is under 500 nM; in assay [2], 1000 to 10000 nM; in assay [3], under 500 nM.
`CN1CCC(COc2cc(OC3CCOCC3)c3c(Sc4nccs4)ncnc3c2)CC1` [Example 2.52, 2-((7-((1-methylpiperidin-4-yl)methoxy)-5-((tetrahydro-2H-pyran-4-yl)oxy)quinazolin-4-yl)thio)thiazole]: the IC50 in assay [1], in assay [2] and in assay [3] was under 500 nM each time.
In the case of `FC(F)(F)c1csc(Nc2ncnc3cc(OCCN4CCOCC4)cc(OC4CCOCC4)c23)n1` [Example 2.53, N-(7-(2-morpholinoethoxy)-5-((tetrahydro-2H-pyran-4-yl)oxy)quinazolin-4-yl)-4-(trifluoromethyl)thiazol-2-amine], the IC50 in assay [1] was over 10000 nM; in assay [2] it was over 10000 nM; in assay [3] it was 1000 to 10000 nM.
Turning to `CN(C)CCCOc1cc(OC2CCOCC2)c2c(Nc3nc(C(F)(F)F)cs3)ncnc2c1` [Example 2.54, N-(7-(3-(dimethylamino)propoxy)-5-((tetrahydro-2H-pyran-4-yl)oxy)quinazolin-4-yl)-4-(trifluoromethyl)thiazol-2-amine], the IC50 was over 10000 nM in assay [1], 1000 to 10000 nM in assay [2] and under 500 nM in assay [3].
In the same order, the values of `OC[C@@H](O)COc1cc(OC2CCOCC2)c2c(Nc3nc(C(F)(F)F)cs3)ncnc2c1` [Example 2.55, (R)-3-((5-((tetrahydro-2H-pyran-4-yl)oxy)-4-((4-(trifluoromethyl)thiazol-2-yl)amino)quinazolin-7-yl)oxy)propane-1,2-diol] are over 10000 nM, over 10000 nM and 500 to 1000 nM.

One may read the IC50 as the concentration at which inhibition is half-maximal.
